{"source": "patent US20080009551A1", "about": "“Methods and Compositions for Identifying Modulators of G Protein-Coupled Receptors” (Arena Pharmaceuticals, Inc., priority 2003, published 2008)", "key": {"[1]": {"system": "histamine receptor H3", "sequence (as listed by the source)": "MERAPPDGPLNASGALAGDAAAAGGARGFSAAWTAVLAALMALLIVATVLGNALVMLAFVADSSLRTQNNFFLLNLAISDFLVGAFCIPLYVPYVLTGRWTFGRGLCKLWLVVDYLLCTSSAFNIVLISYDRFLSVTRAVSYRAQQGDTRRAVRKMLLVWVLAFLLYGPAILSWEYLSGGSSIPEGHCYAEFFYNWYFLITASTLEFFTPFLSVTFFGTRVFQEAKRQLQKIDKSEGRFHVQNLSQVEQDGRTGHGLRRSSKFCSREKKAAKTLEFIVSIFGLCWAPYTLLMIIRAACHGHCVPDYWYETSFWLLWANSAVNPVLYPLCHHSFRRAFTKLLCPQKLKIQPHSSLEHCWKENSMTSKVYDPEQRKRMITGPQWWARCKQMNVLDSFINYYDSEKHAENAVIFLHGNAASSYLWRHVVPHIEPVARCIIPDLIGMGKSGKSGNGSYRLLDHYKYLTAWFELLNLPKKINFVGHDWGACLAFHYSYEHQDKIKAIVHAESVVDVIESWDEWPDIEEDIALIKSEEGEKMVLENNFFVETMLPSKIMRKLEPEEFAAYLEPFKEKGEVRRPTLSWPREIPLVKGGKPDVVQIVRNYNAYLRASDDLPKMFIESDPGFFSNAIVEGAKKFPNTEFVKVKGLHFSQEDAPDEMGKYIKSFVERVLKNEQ", "conditions": "FIG. 14"}, "[2]": {"system": "niacin receptor", "test": "Upregulation of GURC-modified niacin receptor (luciferase assay)", "type": "cell-based", "conditions": "FIG. 15A"}, "[3]": {"system": "β2 adrenergic receptor", "test": "Upregulation of GURC-modified β2 adrenergic receptor (luciferase assay)", "type": "cell-based", "conditions": "FIG. 15B"}}, "data": [{"molecule": "Methyl histamine", "values": [{"measurement": "potency at histamine receptor H3", "setting": "[1]", "value": "low potency"}]}, {"molecule": "COC(=O)c1cccnc1", "note": "[methyl nicotinate]", "values": [{"measurement": "upregulation of the niacin receptor", "setting": "[2]", "value": "dose-dependent upregulation"}, {"measurement": "upregulation of the β2 adrenergic receptor", "setting": "[3]", "value": "lack of dose-dependent upregulation"}]}, {"molecule": "Nc1ncnc2c1ncn2[C@@H]1O[C@H](COP(=O)(O)OP(=O)(O)OC[C@@H]2O[C@H]([n+]3cccc(C(=O)[O-])c3)[C@@H](O)[C@H]2O)[C@@H](O)[C@H]1OP(=O)(O)O", "note": "[NAADP-β]", "values": [{"measurement": "upregulation of the niacin receptor", "setting": "[2]", "value": "dose-dependent upregulation"}, {"measurement": "upregulation of the β2 adrenergic receptor", "setting": "[3]", "value": "lack of dose-dependent upregulation"}]}]}
